Changes are numbered by the printed parent chain. “And” between values parts separate entries of the source, which are not always exact repeats. Equal values may be shown once. Read-outs that look alike come from different tables or passages of the source.
Assays:
[1] = molecular target: T1, E. coli WT DHFR (Escherichia coli, UniProt P0ABQ4); assay: biochemical; details: for Ki: Ki value, E. coli WT DHFR, Ki converted from IC50; for inhibition at 200 µM: read-out: inhibition of DHFR catalytic activity
T1 construct: made in house
T1 sequence (P0ABQ4 1-159): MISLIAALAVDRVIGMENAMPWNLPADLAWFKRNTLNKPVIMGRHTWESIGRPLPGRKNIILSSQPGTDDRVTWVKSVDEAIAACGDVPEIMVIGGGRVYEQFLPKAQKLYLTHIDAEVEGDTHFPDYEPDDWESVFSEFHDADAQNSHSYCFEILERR

[2] = molecular target: T2, E. coli DHFR P21L mutant (Escherichia coli, UniProt P0ABQ4, P21L); assay: biochemical; details: for Ki: Ki value, E. coli P21L DHFR, Ki converted from IC50; for inhibition at 200 µM: read-out: inhibition of DHFR catalytic activity
T2 construct: made in house
T2 sequence (P0ABQ4 1-159 P21L): T1 sequence (P0ABQ4 1-159) with P21L

[3] = molecular target: T3, E. coli DHFR A26T mutant (Escherichia coli, UniProt P0ABQ4, A26T); assay: biochemical; details: for Ki: Ki value, E. coli A26T DHFR, Ki converted from IC50; for inhibition at 200 µM: read-out: inhibition of DHFR catalytic activity
T3 construct: made in house
T3 sequence (P0ABQ4 1-159 A26T): T1 sequence (P0ABQ4 1-159) with A26T

[4] = molecular target: T4, E. coli DHFR L28R mutant (Escherichia coli, UniProt P0ABQ4, L28R); assay: biochemical; details: for Ki: Ki value, E. coli L28R DHFR, Ki converted from IC50; for inhibition at 200 µM: read-out: inhibition of DHFR catalytic activity
T4 construct: made in house
T4 sequence (P0ABQ4 1-159 L28R): T1 sequence (P0ABQ4 1-159) with L28R

[5] = test system: E. coli strain with chromosomal P21L DHFR; assay: microbe, parasite or virus in culture; type: cell-based; details: Escherichia coli, read-out: Bacterial growth inhibition IC50
[6] = test system: E. coli strain with chromosomal A26T DHFR; assay: microbe, parasite or virus in culture; type: cell-based; details: Escherichia coli, read-out: Bacterial growth inhibition IC50
[7] = test system: E. coli strain with chromosomal L28R DHFR; assay: microbe, parasite or virus in culture; type: cell-based; details: for IC50: Escherichia coli, read-out: Bacterial growth inhibition IC50
[8] = test system: WT E. coli strain; assay: microbe, parasite or virus in culture; details: Escherichia coli
[9] = molecular target: T5, Human DHFR (Homo sapiens, UniProt P00374); assay: biochemical; type: biochemical; details: for Ki: Human WT DHFR, NT means no inhibition was detected at the maximal compound concentration tested
T5 construct: purchased Sigma Aldrich

[10] = test system: CD15-3-evolved E. coli strains; assay: microbe, parasite or virus in culture; type: cell-based; details: Escherichia coli
[11] = test system: E. coli BW27783; type: cell-based
[12] = test system: WT E. coli strain; details: read-out: Bacterial growth inhibition IC50; WT (naive) E. coli strain, M9 medium, 37°C
[13] = test system: WT and evolved E. coli cells; assay: DIC imaging of cell length; details: 42°C
[14] = molecular target: T6, E. coli DHFR P21L-A26T mutant (Escherichia coli, UniProt P0ABQ4, A26T/P21L); assay: biochemical
T6 construct: made in house
T6 sequence (P0ABQ4 1-159 P21L/A26T): T1 sequence (P0ABQ4 1-159) with P21L, A26T

[15] = molecular target: T7, E. coli DHFR P21L-L28R mutant (Escherichia coli, UniProt P0ABQ4, L28R/P21L); assay: biochemical
T7 construct: made in house
T7 sequence (P0ABQ4 1-159 P21L/L28R): T1 sequence (P0ABQ4 1-159) with P21L, L28R

[16] = molecular target: T8, E. coli DHFR A26T-L28R mutant (Escherichia coli, UniProt P0ABQ4, A26T/L28R); assay: biochemical
T8 construct: made in house
T8 sequence (P0ABQ4 1-159 A26T/L28R): T1 sequence (P0ABQ4 1-159) with A26T, L28R

[17] = single fixed concentration of 200 µM, WT DHFR
[18] = single fixed concentration of 200 µM, P21L DHFR
[19] = single fixed concentration of 200 µM, A26T DHFR
[20] = single fixed concentration of 200 µM, L28R DHFR
[21] = read-out: Bacterial growth inhibition IC50, WT (naive) E. coli strain, M9 medium, 37°C

Structure (SMILES)	Ki [1]	Ki [2] [µM]	Ki [3]	Ki [4]	IC50 [5] [µM]	IC50 [6] [µM]	IC50 [7] [µM]	IC50 [8, 21] [µM]	further results
COc1cc([C@H]2CC(=O)Nc3nc(N)[nH]c(=O)c32)ccc1O [CD08]	6.9 ± 0.6 µM	3.2 ± 0.4	4.9 ± 1.4 µM	3.1 ± 0.6 µM	–	–	–	–	inhibition at 200 µM [1, 17]: > 30%; inhibition at 200 µM [2, 18]: > 30%; inhibition at 200 µM [3, 19]: > 30%; inhibition at 200 µM [4, 20]: > 30%
COc1ccc([C@@H]2CC(c3c(O)[nH]c(=O)n(C)c3=O)=NN2)cc1O [CD15-2]	–	–	–	–	125	119	88	129	–
Cn1c(=O)[nH]c(O)c(C2=NN[C@H](c3cccc4ccccc34)C2)c1=O [CD15-3]	5.52 µM	2.51	3.48 µM	0.98 µM	57	73	48	71.8	inhibitory activity against human DHFR ([9]; CD15-3 17.56–200 µM, 25°C): no inhibitory activity; efficacy relative to TMP on L28R E. coli variant strain ([7]; growth inhibition IC50, better than TMP): about 2.4 fold; IC50 ([10]; CD15-3-evolved strain Evolved 1, M9 media): 132 µM; IC50 ([10]; CD15-3-evolved strain Evolved 2, M9 media): 166 µM; IC50 ([10]; CD15-3-evolved strain Evolved 3, M9 media): 170 µM; IC50 ([10]; range over strains evolved under CD15-3, read-out: IC50 of evolved strains): 132 to 170 µM; effect of folA mix supplement on drug-induced growth inhibition ([11]; M9 media with folA mix): partially rescued; effect of inactive D27F DHFR overexpression on drug-induced growth inhibition ([11]; pBAD D27F, 0.005% arabinose): no growth recovery; effect of WT DHFR overexpression on drug-induced growth inhibition ([11]; pBAD folA, 0.005% arabinose): partially rescued growth; IC50 [12]: 72 µM; median cell length ([13]; WT cells treated at IC50 concentration, 4 hours): 2.34 µm; median cell length ([13]; evolved cells treated at IC50 concentration): 1.26 µm; IC50 ([8]; read-out: IC50 against WT and TMP-resistant strains): 50 to 75 µM
Cn1c(=O)[nH]c(O)c(C2=NN[C@H](c3ccc4c(c3)OCO4)C2)c1=O [CD15-4]	–	–	–	–	92	123	67	302	–
COc1cc([C@@H]2CC(c3c(O)[nH]c(=O)n(C)c3=O)=NN2)cc(OC)c1OC [CD15-6]	–	–	–	–	159	172	167	175	–
COc1ccc([C@@H]2CC(c3c(O)[nH]c(=O)n(C)c3=O)=NN2)cc1OC [CD15]	3.35 µM	1.42	2.43 µM	1.04 µM	176	197	159	170	inhibition at 200 µM [1, 17]: > 30%; inhibition at 200 µM [2, 18]: > 30%; inhibition at 200 µM [3, 19]: > 30%; inhibition at 200 µM [4, 20]: > 30%; Ki [14]: 3.26 µM; Ki [15]: 0.56 µM; Ki [16]: 0.61 µM; Ki [9]: 0.38 µM
C[C@H](Oc1ccc(C=C2C(=O)NC(=O)NC2=O)cc1)C(=O)O [CD17-3]	–	–	–	–	2840	2150	907	2950	–
O=C(O)COc1c(Cl)cc(C=C2C(=O)NC(=O)NC2=O)cc1Cl [CD17-4]	–	–	–	–	–	–	1860	–	–
CCOc1cc(C=C2C(=O)NC(=O)NC2=O)ccc1OCC(=O)O [CD17]	8.2 µM and 8.18 µM	3.7	6.7 µM and 6.73 µM	3.7 µM and 3.65 µM	5050	1920	932	1770	inhibition at 200 µM [1, 17]: > 30%; inhibition at 200 µM [2, 18]: > 30%; inhibition at 200 µM [3, 19]: > 30%; inhibition at 200 µM [4, 20]: > 30%; Ki [14]: 9.2 µM; Ki [15]: 1.37 µM; Ki [16]: 2.04 µM; Ki [9]: 0.74 µM
CSc1nc2nc(N)nc(N)c2s1 [CD20]	–	–	–	–	–	–	–	–	inhibition of DHFR catalytic activity [1, 17]: showed inhibition; inhibition of DHFR catalytic activity [2, 18]: showed inhibition; inhibition of DHFR catalytic activity [3, 19]: showed inhibition; inhibition of DHFR catalytic activity [4, 20]: not
Cc1cc(NS(=O)(=O)c2ccc(N)cc2)no1 [Sulfamethoxazole, reference compound]	–	–	–	–	–	–	–	–	IC50 ([10]; CD15-3-evolved cells, cross resistance test, growth rate): 6.7 µM; IC50 [8]: 2.9 µM
COc1cc(Cc2cnc(N)nc2N)cc(OC)c1OC [TMP, trimethoprim, reference compound]	–	–	–	–	–	–	–	–	IC50 [8]: 0.4 µg/mL; IC50 ([8]; read-out: Bacterial growth inhibition IC50): 1.3 µM
